The values below come from patent US20130072523A1, “ANALOGUES FOR THE TREATMENT OR PREVENTION OF FLAVIVIRUS INFECTIONS” (VERTEX PHARMACEUTICALS INCORPORATED, priority 2009, published 2013).

This assay has as its system HCV 1b genotype. The assay is described as follows: Cell-based luciferase reporter HCV (Ib) RNA replication assay (Huh-ET replicon cells). Particulars: Hepatitis C virus, 96 h; HCV 1b genotype replicon, 4 days incubation, luciferase readout. The text has this:
Cell-Based Luciferase Reporter HCV (Ib) RNA Replication Assay Cell Culture
Replicon cell lines Huh-5.2 are derived from the Huh-7 hepatocarcinoma cell line are maintained in culture as generally described in Krieger, N; Lohmann, V; Bartenschlager, R. Enhancement of hepatitis C virus RNA replication by cell culture-adaptive mutations. J. Virol. 2001, 75, 4614-4624. The Huh-5.2 cells contain the highly cell culture-adapted replicon I389 Luc-ubi-neo/NS3-375.1 construct that carries, in addition to the neomycin gene, an integrated copy to the firefly luciferase gene (Krieger, N; Lohmann, V; Bartenschlager, R. Enhancement of hepatitis C virus RNA replication by cell culture-adaptive mutations. J. Virol. 2001, 75, 4614-4624). This cell line allows measurement of HCV RNA replication and translation by measuring luciferase activity. It has been previously shown that the luciferase activity tightly follows the replicon RNA level in these cells (Krieger, N; Lohmann, V; Bartenschlager, R. Enhancement of hepatitis C virus RNA replication by cell culture-adaptive mutations. J. Virol. 2001, 75, 4614-4624). The Huh-ET cell line has the same features as those mentioned for Huh-5.2 cell line, except that ET cells are more robust and contain an adaptative mutation in the HCV NS4B gene instead of NS5A. Both cell lines are maintained in cultures at a sub-confluent level (<85%) as the level of replicon RNA is highest in actively proliferating cells. The culture media used for cell passaging consist of DMEM (Gibco BRL Laboratories, Mississauga, ON, Canada) supplemented with 10% foetal bovine serum with 1% penicilin/streptomycin, 1% glutamine, 1% sodium pyruvate, 1% non-essential amino acids, and 180 μg/ml of G418 final concentration. Cells are incubated at 37° C., in an atmosphere of 5% CO2 and passaged twice a week to maintain sub-confluence.
Approximately 3000 viable Huh-ET cells (100 μl) are plated per well in a white opaque 96-well microtiter plate. The cell culture media used for the assay is the same as described above except that it contains no G418 and no phenol red. After an incubation period of 3-4 hours at 37° C. in a 5% CO2 incubator, compounds (100 μl) are added at various concentrations. Cells are then further incubated for 4 days at 37° C. in a 5% CO2 incubator. Thereafter, the culture media is removed and cells are lysed by the addition of 95 μL of the luciferase buffer (luciferin substrate in buffered detergent). Cell lysates are incubated at room temperature and protected from direct light for at least 10 minutes. Plates are read for luciferase counts using a luminometer (Wallac MicroBeta Trilux, Perkin Elmer™, MA, USA).
The 50% inhibitory concentrations (IC50s) for inhibitory effect are determined from dose response curves using eleven concentrations per compound in duplicate. Curves are fitted to data points using nonlinear regression analysis, and IC50s are interpolated from the resulting curve using GraphPad Prism software, version 2.0 (GraphPad Software Inc., San Diego, Calif., USA).
EC50 ranges are presented in micromolar as follows: μM+++<=0.005<++<=5.0<+.
(In general: A reporter such as luciferase makes a cellular process visible.)
Compound `CC[C@H]1C[C@@H](c2ncc(C#Cc3ccc(C#Cc4cnc([C@@H]5C[C@H](CC)CN5C(=O)[C@@H](NC(=O)OC)C(C)C)[nH]4)cc3)[nH]2)N(C(=O)[C@@H](NC(=O)OC)C(C)C)C1` [Compound 41] yielded an IC50 of no more than 5 nM.

Regarding `[2H]C([2H])([2H])C([2H])(C([2H])([2H])[2H])[C@@]([2H])(NC(=O)OC)C(=O)N1C[C@@H](C)C[C@H]1c1ncc(C#Cc2ccc(C#Cc3cnc([C@@H]4C[C@H](C)CN4C(=O)[C@@H](NC(=O)OC)C(C)C)[nH]3)cc2)[nH]1` [Compound 44], the IC50 was no more than 5 nM.

On to `COC(=O)N[C@H](C(=O)N1C[C@@H](C)C[C@H]1c1ncc(C#Cc2ccc(C#Cc3cnc([C@@H]4C[C@H](C)CN4C(=O)[C@@H](NC(=O)OC)C(C)C)[nH]3)c3c2OC(F)(F)O3)[nH]1)C(C)C` [Compound 45], for which the IC50 was no more than 5 nM.

Compound `COC(=O)N[C@H](C(=O)N[C@H](C(=O)N1C[C@@H](C)C[C@H]1c1ncc(C#Cc2ccc(C#Cc3cnc([C@@H]4C[C@H](C)CN4C(=O)[C@@H](NC(=O)OC)C(C)C)[nH]3)cc2)[nH]1)C(C)C)C(C)C` [Compound 46] showed an IC50 of no more than 5 nM.

With `COC(=O)N[C@H](C(=O)N1C[C@@H](C)C[C@H]1c1nc(C)c(-c2cc3sc(-c4[nH]c([C@@H]5C[C@H](C)CN5C(=O)[C@@H](NC(=O)OC)C(C)C)nc4C)cc3s2)[nH]1)C(C)C` [Compound 47], the IC50 was no more than 5 nM.

`COC(=O)N[C@H](C(=O)N1C[C@@H](C)C[C@H]1c1nc(C(F)(F)F)c(C#Cc2ccc(C#Cc3[nH]c([C@@H]4C[C@H](C)CN4C(=O)[C@@H](NC(=O)OC)C(C)C)nc3C(F)(F)F)cc2)[nH]1)C(C)C` [Compound 48] registered an IC50 of no more than 5 nM.

`COC(=O)N[C@H](C(=O)N1C[C@@H](C)C[C@H]1c1nc(-c2ccc3cc(-c4c[nH]c([C@@H]5C[C@H](C)CN5C(=O)[C@@H](NC(=O)OC)C(C)C)n4)ccc3c2)c[nH]1)C(C)C` [Compound 49] registered an IC50 of no more than 5 nM.

Turning to `COC(=O)N[C@H](C(=O)N1C[C@@H](C)C[C@@H]1c1ncc(C#Cc2ccc(C#Cc3cnc([C@@H]4C[C@H](C)CN4C(=O)[C@@H](NC(=O)OC)C(C)C)[nH]3)cc2)[nH]1)C(C)C` [Compound 52], the IC50 fell in the range of 5 to 5000 nM.

The compound `COC(=O)N[C@H](C(=O)N1C[C@@H](C)C[C@H]1c1nc(C#CC#Cc2c[nH]c([C@@H]3C[C@H](C)CN3C(=O)[C@@H](NC(=O)OC)C(C)C)n2)c[nH]1)C(C)C` [Compound 53] had an IC50 of no more than 5 nM.

With `COC(=O)N[C@H](C(=O)N1C[C@@H](C)C[C@H]1c1ncc(C#Cc2ccc(C#Cc3cnc([C@@H]4C[C@H](C)CN4C(=O)OC(C)(C)C)[nH]3)cc2)[nH]1)C(C)C` [Compound 54], the IC50 is no more than 5 nM.

`COC(=O)N[C@H](C(=O)N1C[C@@H](C)C[C@H]1c1nc(C#Cc2ccc3nc(C#Cc4c[nH]c([C@@H]5C[C@H](C)CN5C(=O)[C@@H](NC(=O)OC)C(C)C)n4)ccc3c2)c[nH]1)C(C)C` [Compound 55] showed an IC50 of no more than 5 nM.

Turning to `COC(=O)N[C@H](C(=O)N1C[C@@H](C)C[C@H]1c1ncc(C#Cc2ccc(C#Cc3cnc([C@@H]4C[C@H](C)CN4C(=O)[C@@H](NC(=O)OC)C(C)C)[nH]3)nc2)[nH]1)C(C)C` [Compound 56], the IC50 was no more than 5 nM.

Consider `COC(=O)N[C@H](C(=O)N1C[C@@H](C)C[C@H]1c1nc(C#Cc2ccc(C#Cc3c[nH]c([C@@H]4C[C@H](C)CN4C(=O)[C@@H](NC(=O)OC)C(C)C)n3)c(C(=O)OC)c2)c[nH]1)C(C)C` [Compound 57], for which the IC50 was no more than 5 nM.

On to `COC(=O)N[C@H](C(=O)N1C[C@@H](C)C[C@H]1c1ncc(-c2ccc(-c3[nH]c([C@@H]4C[C@H](C)CN4C(=O)[C@@H](NC(=O)OC)C(C)C)nc3-c3cc4sccc4s3)cc2)[nH]1)C(C)C` [Compound 58], for which the IC50 was no more than 5 nM.

For `COC(=O)N[C@H](C(=O)N1C[C@@H](C)C[C@H]1c1nc(CO)c(C#Cc2ccc(C#Cc3[nH]c([C@@H]4C[C@H](C)CN4C(=O)[C@@H](NC(=O)OC)C(C)C)nc3CO)cc2)[nH]1)C(C)C` [Compound 59], the IC50 lay within 5 to 5000 nM.

Compound `COC(=O)N[C@H](C(=O)N1C[C@@H](C)C[C@H]1c1nc(C#Cc2ccc(C#Cc3c[nH]c([C@@H]4C[C@H](C)CN4C(=O)[C@@H](NC(=O)OC)C(C)C)n3)s2)c[nH]1)C(C)C` [Compound 60] came in with an IC50 of no more than 5 nM.

The compound `COC(=O)N[C@H](C(=O)N1C[C@@H](C)C[C@H]1c1nc(C#Cc2ccc3sc(C#Cc4c[nH]c([C@@H]5C[C@H](C)CN5C(=O)[C@@H](NC(=O)OC)C(C)C)n4)cc3c2)c[nH]1)C(C)C` [Compound 61] displayed an IC50 of no more than 5 nM.

In the case of `COC(=O)N[C@H](C(=O)N1C[C@@H](C)C[C@H]1c1nc(C#Cc2ccc(C#Cc3c[nH]c([C@@H]4C[C@H](C)CN4C(=O)[C@@H](NC(=O)OC)C(C)C)n3)c(C#N)c2)c[nH]1)C(C)C` [Compound 62], the IC50 is no more than 5 nM.

In turn, `COC(=O)N[C@H](C(=O)N1C[C@@H](C)C[C@H]1c1nc(C#Cc2ccc(C#Cc3c[nH]c([C@@H]4C[C@H](C)CN4C(=O)[C@@H](NC(=O)OC)C(C)C)n3)c(Cl)c2)c[nH]1)C(C)C` [Compound 63] yielded an IC50 of no more than 5 nM.

As to `COC(=O)N[C@H](C(=O)N1C[C@@H](C)C[C@H]1c1ncc(C#Cc2ccc(C#Cc3cnc([C@@H]4C[C@H](CO)CN4C(=O)[C@@H](NC(=O)OC)C(C)C)[nH]3)cc2)[nH]1)C(C)C` [Compound 64], the IC50 was no more than 5 nM.

`C[C@H]1C[C@@H](c2ncc(-c3ccc(-c4ccc(-c5cnc([C@@H]6C[C@H](C)CN6C(=O)OC(C)(C)C)[nH]5)s4)cc3)[nH]2)N(C(=O)OC(C)(C)C)C1` [Compound 65] registered an IC50 of 5 to 5000 nM.

In the case of `COC(=O)N[C@H](C(=O)N1C[C@@H](C)C[C@H]1c1nc(C)c(C#Cc2cc3sc(C#Cc4[nH]c([C@@H]5C[C@H](C)CN5C(=O)[C@@H](NC(=O)OC)C(C)C)nc4C)cc3s2)[nH]1)C(C)C` [Compound 66], the IC50 was no more than 5 nM.

`COC(=O)N[C@H](C(=O)N1C[C@@H](C)C[C@H]1c1nc(C#Cc2ccc3cc(C#Cc4c[nH]c([C@@H]5C[C@H](C)CN5C(=O)[C@@H](NC(=O)OC)C(C)C)n4)sc3c2)c[nH]1)C(C)C` [Compound 67] registered an IC50 of no more than 5 nM.

Compound `COC(=O)N[C@H](C(=O)N1C[C@@H](OC)C[C@H]1c1ncc(C#Cc2ccc(C#Cc3cnc([C@@H]4C[C@H](OC)CN4C(=O)[C@@H](NC(=O)OC)C(C)C)[nH]3)cc2)[nH]1)C(C)C` [Compound 68] had an IC50 of no more than 5 nM.

`COC(=O)N[C@H](C(=O)N1C[C@@H](C)C[C@H]1c1ncc(-c2ccc(-c3cc4sc(-c5cnc([C@@H]6C[C@H](C)CN6C(=O)[C@@H](NC(=O)OC)C(C)C)[nH]5)cc4s3)cc2)[nH]1)C(C)C` [Compound 69] had an IC50 of no more than 5 nM.

As for `COC(=O)N[C@H](C(=O)N1CCC[C@H]1c1nc(-c2cc3sc(-c4c[nH]c([C@@H]5CCCN5C(=O)[C@@H](NC(=O)OC)C(C)C)n4)cc3s2)c[nH]1)C(C)C` [Example 25, Methyl N-[(1S)-1-[(2S)-2-[4-[2-[2-[(2S)-1-[(2S)-2-(methoxycarbonylamino)-3-methyl-butanoyl]pyrrolidin-2-yl]-1H-imidazol-4-yl]thieno[3,2-b]thiophen-5-yl]-1H-imidazol-2-yl]pyrrolidine-1-carbonyl]-2-methyl-propyl]carbamate], the IC50 was no more than 5 nM.

In turn, `COC(=O)N[C@H](C(=O)N1CC(C)(C)C[C@H]1c1nc(C)c(C#Cc2ccc(C#Cc3[nH]c([C@@H]4CC(C)(C)CN4C(=O)[C@@H](NC(=O)OC)C(C)C)nc3C)cc2)[nH]1)C(C)C` [Example 30] returned an IC50 of no more than 5 nM.

As usually defined, the IC50 is the concentration at which inhibition is half-maximal.
